Here are results for 13 compounds from US20250230165A1, “HETEROCYCLIC COMPOUNDS FOR USE IN THE TREATMENT OF CANCER” (ARTIOS PHARMA LIMITED, priority 2021, published 2025).

The assay addresses T1, Human Polθ polymerase domain (aa1820-2590) (Homo sapiens, UniProt O75417).
T1 construct: Human Polθ polymerase domain (aa1820-2590) was expressed in E. coli; made in house; host or cells: E. coli
T1 sequence (O75417 1820-2590): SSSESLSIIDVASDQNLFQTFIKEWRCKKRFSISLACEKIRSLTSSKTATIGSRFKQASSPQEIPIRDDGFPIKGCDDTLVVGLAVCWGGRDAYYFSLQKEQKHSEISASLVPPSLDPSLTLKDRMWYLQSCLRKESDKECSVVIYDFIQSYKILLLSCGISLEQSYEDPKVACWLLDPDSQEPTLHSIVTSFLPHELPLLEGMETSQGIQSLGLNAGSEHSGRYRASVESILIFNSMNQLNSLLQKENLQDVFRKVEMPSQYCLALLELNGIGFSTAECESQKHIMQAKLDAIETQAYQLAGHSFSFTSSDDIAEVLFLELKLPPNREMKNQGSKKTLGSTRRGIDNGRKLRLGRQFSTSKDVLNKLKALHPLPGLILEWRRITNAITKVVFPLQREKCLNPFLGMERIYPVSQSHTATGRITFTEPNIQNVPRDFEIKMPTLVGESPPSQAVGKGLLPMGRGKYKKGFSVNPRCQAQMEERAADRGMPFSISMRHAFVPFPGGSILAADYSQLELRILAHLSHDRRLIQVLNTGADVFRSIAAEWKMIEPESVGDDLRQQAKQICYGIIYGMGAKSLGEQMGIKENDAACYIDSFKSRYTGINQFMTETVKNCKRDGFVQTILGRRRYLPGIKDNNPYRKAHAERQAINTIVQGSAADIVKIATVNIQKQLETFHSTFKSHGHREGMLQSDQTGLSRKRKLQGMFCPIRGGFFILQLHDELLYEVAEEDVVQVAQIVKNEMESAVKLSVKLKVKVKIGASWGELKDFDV
Briefly: Polθ Polymerase Domain Kinact/KI Assay (PicoGreen). The class given is biochemical. As to conditions: 0.8 nM Polθ, 100 nM DNA substrate, kobs vs [I] fit for 2-step covalent inhibitor. The method in brief: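 Enzyme 0.8 nM, annealed DNA substrate 100 nM, […]; 25 mM Tris pH 7.5, 5% glycerol, 0.01% Triton X-100, 0.1 mg/ml BSA, 1 mM DTT, 1% DMSO. Quench with EDTA at timepoints to 60 min; PicoGreen read. kobs from time courses → Kinact/KI.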
Consider `C=C(CN(C)C)C(=O)N1CC(c2ccc(CN3C[C@H]4CC(=O)N(c5cc(C(F)(F)F)cc(C)n5)[C@@H]4C(=O)N(C)c4cccc(C)c43)cc2)C1` [Example 186, (3aR,11aS)-5-(4-(1-(2-((dimethyl-amino)methyl)-acryloyl)azetidin-3-yl)benzyl)-6,10-dimethyl-1-(6-methyl-4-(trifluoro-methyl)pyridin-2-yl)-1,3a,4,5,10,11a-hexahydro-2H-benzo[b]pyrrolo [2,3-f][1,4]diazo-cine-2,11(3H)-dione], for which the Kinact/Kl was found to be 3.23e+06 M⁻¹ s⁻¹.

In turn, `C=CC(=O)N1CC(c2nnc(CN3C[C@H]4CC(=O)N(c5cc(C(F)(F)F)cc(C)n5)[C@@H]4C(=O)N(C)c4cccc(F)c43)o2)C1` [Example 103, (3aR,11aS)-5-((5-(1-acryloylazetidin-3-yl)-1,3,4-oxadiazol-2-yl)methyl)-6-fluoro-10-methyl-1-(6-methyl-4-(trifluoromethyl)pyridin-2-yl)-1,3a,4,5,10,11a-hexahydro-2H-benzo[b]pyrrolo[2,3-f][1,4]diazocine-2,11(3H)-dione] displayed a Kinact/Kl of 1.6e+06 M⁻¹ s⁻¹.

`C=C(CN(C)C)C(=O)NC12CC(CN3C[C@H]4CC(=O)N(c5cc(C(F)(F)F)cc(C)n5)[C@@H]4C(=O)N(C)c4cccc(C)c43)(C1)C2` [Example 184, N-(3-(((3aR,11aS)-6,10-dimethyl-1-(6-methyl-4-(trifluoromethyl)-pyridin-2-yl)-2,11-dioxo-1,2,3,3a,4, 10,11,11a-octa-hydro-5H-benzo [b]pyrrolo[2,3-f] [1,4]diazocin-5-yl)methyl)bicyclo [1.1.1]pentan-1-yl)-2-((dimethyl-amino)methyl)-acrylamide] came in with a Kinact/Kl of 1.33e+06 M⁻¹ s⁻¹.

Take `Cc1cc(C(F)(F)F)cc(N2C(=O)C[C@@H]3CN(Cc4ccc5c(c4)[C@H](CC#N)N(C(=O)/C=C/CN(C)C)C5)c4c(Cl)cccc4N(C)C(=O)[C@H]32)n1` (racemic) [Example 311b, 2-((S/R)-6-(((3aR,11aS)-6-chloro-10-methyl-1-(6-methyl-4-(trifluoromethyl)pyridin-2-yl)-2,11-dioxo-1,2,3,3a,4,10,11,11a-octahydro-5H-benzo[b]pyrrolo[2,3-f][1,4]diazocin-5-yl)methyl)-2-((E)-4-(dimethylamino)but-2-enoyl)isoindolin-1-yl)acetonitrile]: the Kinact/Kl came to 1.22e+06 M⁻¹ s⁻¹.

As to `Cc1cc(C(F)(F)F)cc(N2C(=O)C[C@@H]3CN(C[C@H]4C[C@@H](NC(=O)/C=C/CN(C)C)C4)c4c(C)cccc4N(C)C(=O)[C@H]32)n1` [Example 332, (E)-N-((1S,3s)-3-(((3aR,11aS)-6,10-dimethyl-1-(6-methyl-4-(trifluoromethyl)-pyridin-2-yl)-2,11-dioxo-1,2,3,3a,4,10, 11,11a-octahydro-5H-benzo[b]pyrrolo [2,3-f][1,4]diazocin-5-yl)methyl)cyclo-butyl)-4-(dimethyl-amino)but-2-enamide], the Kinact/Kl stood at 1.3e+06 M⁻¹ s⁻¹.

For the compound `C=CC(=O)N1CC(Oc2cccc(N3C[C@H]4CC(=O)N(c5cc(C(F)(F)F)cc(C)n5)[C@@H]4C(=O)N(C)c4cccc(F)c43)n2)C1` [Example 57, (3aR,11aS)-5-(6-((1-acryloylazetidin-3-yl)oxy)pyridin-2-yl)-6-fluoro-10-methyl-1-(6-methyl-4-(trifluoromethyl)pyridin-2-yl)-1,3a,4,5,10,11a-hexahydro-2H-benzo[b]pyrrolo[2,3-f][1,4]diazocine-2,11(3H)-dione], the Kinact/Kl amounted to 34000 M⁻¹ s⁻¹.

For the compound `Cc1cc(C(F)(F)F)cc(N2C(=O)C[C@@H]3CN(Cc4ccc(NC(=O)/C=C/CN(C)C)cc4)c4c(C)cccc4N(C)C(=O)[C@H]32)n1` [Example 207, (E)-N-(4-(((3aR, 11aS)-6,10-dimethyl-1-(6-methyl-4-(trifluoromethyl)pyridin-2-yl)-2,11-dioxo-1,2,3,3a,4,10,11,11a-octahydro-5H-benzo[b]pyrrolo[2,3-f][1,4]diazocin-5-yl)methyl)phenyl)-4-(dimethylamino) but-2-enamide], the Kinact/Kl was 1.82e+06 M⁻¹ s⁻¹.

As for `C=CC(=O)N1CCc2ncn(CCN3C[C@H]4CC(=O)N(c5cc(C(F)(F)F)cc(C)n5)[C@@H]4C(=O)N(C)c4cccc(F)c43)c2C1` [Example 50, (3aR,11aS)-5-(2-(5-acryloyl-4,5,6,7-tetrahydro-3H-imidazo[4,5-c]pyridin-3-yl)ethyl)-6-fluoro-10-methyl-1-(6-methyl-4-(trifluoromethyl)pyridin-2-yl)-1,3a,4,5,10,11a-hexahydro-2H-benzo[b]pyrrolo[2,3-f][1,4]diazocine-2,11(3H)-dione], the Kinact/Kl stood at 190000 M⁻¹ s⁻¹.

The compound `C=CC(=O)N1Cc2nc(CN3C[C@H]4CC(=O)N(c5cc(C(F)(F)F)cc(C)n5)[C@@H]4C(=O)N(C)c4cccc(Cl)c43)cn2CC1CO` (stereo partly drawn) [Example 244, (3aR,11aS)-5-((7-acryloyl-6-(hydroxymethyl)-5,6,7,8-tetrahydroimidazo[1,2-a]pyrazin-2-yl)methyl)-6-chloro-10-methyl-1-(6-methyl-4-(trifluoromethyl)pyridin-2-yl)-1,3a,4,5,10,11a-hexahydro-2H-benzo[b]pyrrolo[2,3-f][1,4]diazocine-2,11(3H)-dione] yielded a Kinact/Kl of 3.83e+06 M⁻¹ s⁻¹.

The compound `C=CC(=O)N1CC2(CN(CCN3C[C@H]4CC(=O)N(c5cc(C(F)(F)F)cc(C)n5)[C@@H]4C(=O)N(C)c4cccc(F)c43)C[C@H]3CCCN32)C1` [Example 2, (3aR,11aS)-5-(2-((R)-1-Acryloyltetrahydro-1′H-spiro[azetidine-3,4′-pyrrolo[1,2-a]pyrazin]-2′(3′H)-yl)ethyl)-6-fluoro-10-methyl-1-(6-methyl-4-(trifluoromethyl)pyridin-2-yl)-1,3a,4,5,10,11a-hexahydro-2H-benzo[b]pyrrolo[2,3-f][1,4]diazocine-2,11(3H)-dione] gave a Kinact/Kl of 670000 M⁻¹ s⁻¹.

`C=CC(=O)N1CC(C)(N2CCC(CN3C[C@H]4CC(=O)N(c5cc(C(F)(F)F)cc(C)n5)[C@@H]4C(=O)N(C)c4cccc(Cl)c43)CC2)C1` [Example 137, (3aR,11aS)-5-((1-(1-acryloyl-3-methylazetidin-3-yl)piperidin-4-yl)methyl)-6-chloro-10-methyl-1-(6-methyl-4-(trifluoromethyl)pyridin-2-yl)-1,3a,4,5,10,11a-hexahydro-2H-benzo[b]pyrrolo[2,3-f][1,4]diazocine-2,11(3H)-dione]: the Kinact/Kl amounted to 980000 M⁻¹ s⁻¹.

Turning to `C=C(CN(C)C)C(=O)N1CC(CC(F)CCN2C[C@H]3CC(=O)N(c4cc(C(F)(F)F)cc(C)n4)[C@@H]3C(=O)N(C)c3cccc(Cl)c32)C1` (stereo partly drawn) [Example 301, (3aR,11aS)-6-chloro-5-(4-(1-(2-((dimethylamino)methyl)acryloyl)azetidin-3-yl)-3-fluorobutyl)-10-methyl-1-(6-methyl-4-(trifluoromethyl)pyridin-2-yl)-1,3a,4,5,10,11a-hexahydro-2H-benzo[b]pyrrolo[2,3-f][1,4]diazocine-2,11(3H)-dione], the Kinact/Kl was 1.78e+06 M⁻¹ s⁻¹.

`C=C(CN(C)C)C(=O)NCc1ccc(CN2C[C@H]3CC(=O)N(c4cc(C(F)(F)F)cc(C)n4)[C@@H]3C(=O)N(C)c3cccc(C)c32)cn1` [Example 190, N-((5-(((3aR,11aS)-6,10-dimethyl-1-(6-methyl-4-(trifluoro-methyl)pyridin-2-yl)-2,11-dioxo-1,2,3,3a,4,10,11, 11a-octahydro-5H-benzo[b]pyrrolo [2,3-f][1,4]diazo-cin-5-yl)methyl)-pyridin-2-yl)meth-yl)-2-((dimethyl-amino)methyl)-acrylamide] registered a Kinact/Kl of 2.93e+06 M⁻¹ s⁻¹.
